In US7767398B2, “Means and methods for diagnosing and treating affective disorders” (Affectis Pharmaceuticals AG, priority 2003, dated 2010):

Legend:
mice = experiment: Porsolt's forced swim test; format: in vivo, mouse; settings: 50 μM BzATP, 1 μl each side intrahippocampal, 24 hours after injection, DBA/2OIa mice
Experimental: Further validation of role of P2X7R in affective disorders was performed by examining its expression pattern in response to stress and treatment with antidepressant drugs. […] In parallel, a control group of mice was given vehicle solution (i.e. without paroxetine) using the same treatment regiment while a second control group of mice was left undisturbed and stress-free (i.e. untreated) during the same period of the experiments. At the end of the long-term treatment, part of the mice of each experimental group were tested in the dark/light box (test of anxiety behaviour) and in the Porsolt's forced swim test (test of depressive-like behaviour) to confirm the effectiveness of the treatment (FIG. 5). […] The other part of the experimental groups (i.e. mice without test experience) were decapitated, brains rapidly removed and frozen at −80° C. until usage.
The effects of P2X7R inhibition on depressive-like behaviour was assessed 24 hours and 48 hours after infusion of siRNA, control or vehicle according to the standard test paradigm, the Porsolt's forced swim test (Porsolt et al., Arch. Int. Pharmacodym. 229 (1977), 327-336; Porsolt, Rev. Neurosci. 11 (2000), 53-58). […] Compared to vehicle application, no influence of control double stranded RNA (5′-[…]-3′) on floating behaviour (passive stress coping) was detected. […] This interpretation becomes moreover evident when the effects of antidepressants on passive stress coping behaviour in the forced swim test are visualized (FIG. 5). Passive stress coping behaviour increased after acute intrahippocampal injection (bilateral, dentate gyrus) of siRNA targeting P2X7R. The Porsolt's forced swim test is a standard test used to assess the effectiveness of antidepressants and it has been proven by many studies that the test is selectively sensitive for these effects, given that the right animal model is used. The paradigm has been widely used to test pharmaceutical compounds and to validate animal models of depression, which show an increase in passive behaviour as do the mice where P2X7R has been inhibited (siRNA).
The forced swim test is a standard test that measures primary stress-induced reductions in avoidance or escape, termed behavioural despair. The test is used to determine the effectiveness of antidepressants, test new pharmaceutical compounds and validate animal models of depression (Porsolt et al., Arch. Int. Pharmacodym. 229 (1977), 327-336; Porsolt, Rev. Neurosci. 11 (2000), 53-58; Rénéric et al., Behav. Brain Res. 136 (2002), 521-532; Page et al., Psychopharmacology 165 (2003), 194-201; Kelliher et al., Psychoneuroendocrinology 28 (2003), 332-347). The test consists of placing a mouse for a period of 5 minutes into a glass cylinder containing water. Under such circumstances, the mouse cannot touch the bottom of the cylinder and is thus forced to swim. Time, latency and frequency of struggling versus floating are scored as behavioural parameters. […] Increased struggling (i.e. active attempts to escape) indicates active coping behaviour that can be interpreted as an improvement of depression-like symptoms. For example, treatment with serotonergic antidepressants reduce the total time spent floating (Borsini, Neurosci. Biobehav. Rev. 19 (1995), 377-395; Redrobe and Bourin, Psychopharmacology 138 (1998), 198-206, and in parallel increases the time of active behaviour (i.e. swimming or struggling; Lucki et al., Psychopharmacology 155 (2001), 315-322).
The behaviour of individual mice was assessed using the Porsolt's forced swim test 24 hours after injection of vehicle solution, KN-62, or oATP. A pre-exposure of 5 minutes to the test was performed 15-17 minutes after administration of vehicle, KN-62, or oATP. A description of the Porsolt's forced swim test is given in example 9. […]

P2X7R = target: T1, P2X7R (Mus musculus, UniProt Q9Z1M0); experiment: Entry of ethidium bromide into HT-22 cells; format: cell-based; settings: HT-22 cells, 60 minutes, 10^−4M ethidium bromide; 1 μM to 1 mM tested
T1 construct: an immortalised mouse hippocampal cell line expressing the endogenous P2X7 gene; endogenous in cells; host or cells: HT-22 mouse hippocampal cell line
T1 sequence (Q9Z1M0 1-595): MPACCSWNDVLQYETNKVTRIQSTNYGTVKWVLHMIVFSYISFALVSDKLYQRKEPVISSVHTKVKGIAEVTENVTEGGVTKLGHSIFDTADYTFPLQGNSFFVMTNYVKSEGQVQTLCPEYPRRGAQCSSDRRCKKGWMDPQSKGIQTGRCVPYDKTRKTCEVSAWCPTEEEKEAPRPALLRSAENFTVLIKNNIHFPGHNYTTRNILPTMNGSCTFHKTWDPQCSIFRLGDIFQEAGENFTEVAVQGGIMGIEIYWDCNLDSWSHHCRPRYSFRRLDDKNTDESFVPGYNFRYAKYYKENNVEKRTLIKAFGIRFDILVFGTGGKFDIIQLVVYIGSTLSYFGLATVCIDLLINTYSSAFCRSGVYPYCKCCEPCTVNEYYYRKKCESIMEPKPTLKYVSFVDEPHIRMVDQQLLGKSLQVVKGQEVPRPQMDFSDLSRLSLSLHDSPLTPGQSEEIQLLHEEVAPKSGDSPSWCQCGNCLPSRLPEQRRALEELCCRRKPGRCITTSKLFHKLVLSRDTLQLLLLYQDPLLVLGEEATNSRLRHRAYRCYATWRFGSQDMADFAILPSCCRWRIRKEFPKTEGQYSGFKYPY
Description: Yet another method of measuring P2X7R activity involves the entry of ethidium bromide into P2X7R expressing cells. Activation of P2X7R by an agonist allows the entry of ethidium bromide which binds nuclear DNA and emits a fluorescence signal. Alternatively, the propidium dye YOPRO-1 can be substituted for ethidium bromide. An increase in fluorescence can be used as a measure of P2X7 receptor activation. Therefore, the assay can be used to test and quantify the effect of an agent or compound with agonist properties on P2X7R. In the present example, 10^3 HT-22 cells were seeded per well in a 96-well flat bottom microtitre plates and incubated at 37° C./5% CO2 in DMEM medium containing 10% FCS until the cells attached to the culture surface. […] The number of fluorescent cells which have integrated the ethidium bromide to the DNA can then be counted using a fluorescent microscope (Zeiss, Germany). […] Alternatively, ethidium bromide fluorescence can be measured using a Perkin-Elmer fluorescent plate reader (excitation 520 nm, emission 595 nm, slit widths: Ex 15 nm, Em 20 nm). From the readings obtained, a pIC50 figure can be calculated for each candidate agent or compound. […] The specificity of an agonist for P2X7R can be evaluated by pre-incubation of the cells for 60 minutes with 100 μM o-ATP before adding the agonist and ethidium bromide dye.

In the case of “2′-3′-O-(4-Benzoylbenzoyl)adenosine 5′-triphosphate [BzATP]”, the “passive behaviour (time, frequency, latency of floating) in the forced swim test” value (mice; latency and frequency of floating statistically significant) is reported as “decrease”, the “active escape attempts (time, frequency, latency of struggling) in the forced swim test” value (mice; time struggling statistically significant) is reported as “increase” and the “BzATP concentrations that increased the number of fluorescent nuclei” value (P2X7R) is reported as “above 100 μM”.
